Data reported in patent US8263606B2 (Xenon Pharmaceuticals Inc., priority 2008, dated 2012).

Legend:
CYP3A4 = CYP3A4 (Homo sapiens, UniProt P08684); assay: Cytochrome P450 (CYP450) Inhibition Assay, CYP3A4 (Vivid fluorescence, BOMCC substrate); details: for inhibition at 10 µM: human, P450 Baculosomes (recombinant CYP3A4), probe BOMCC (Vivid substrate)
Chain of CYP3A4 (P08684 whole entry): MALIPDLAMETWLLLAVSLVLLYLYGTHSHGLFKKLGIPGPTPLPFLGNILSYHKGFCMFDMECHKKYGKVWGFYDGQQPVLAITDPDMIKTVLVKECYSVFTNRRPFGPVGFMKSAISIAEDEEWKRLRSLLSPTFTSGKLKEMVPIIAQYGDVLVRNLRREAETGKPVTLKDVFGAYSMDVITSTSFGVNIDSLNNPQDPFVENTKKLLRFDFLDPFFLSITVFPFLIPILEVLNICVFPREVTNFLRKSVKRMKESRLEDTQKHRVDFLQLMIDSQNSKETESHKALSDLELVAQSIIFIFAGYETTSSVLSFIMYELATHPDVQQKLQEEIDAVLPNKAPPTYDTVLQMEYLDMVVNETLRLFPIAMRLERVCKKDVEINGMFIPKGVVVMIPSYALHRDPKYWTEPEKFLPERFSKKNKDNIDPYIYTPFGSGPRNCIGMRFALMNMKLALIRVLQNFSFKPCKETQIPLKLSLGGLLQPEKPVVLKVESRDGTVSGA

Structure (SMILES)	melting point	inhibition at 10 µM (CYP3A4)	% Inhibition of CYP3A4 (CYP3A4; CYP3A4 isozyme, at 10 μM)
O=C1N(Cc2cc3ccccc3o2)c2ccccc2C12COc1cc3c(cc12)OCO3 (stereo not shown) [Example 1.8, 1′-(1-benzofuran-2-ylmethyl)spiro[furo[2,3-f][1,3]-benzodioxole-7,3′-indol]-2′(1′H)-one]	167 to 168 °C	> 50%	–
CN1C(=O)C2(COc3cc4c(cc32)OCCO4)c2c(C(=O)Oc3ccccc3)cccc21 (stereo not shown) [Example 2.53, phenyl 1′-methyl-2′-oxo-1′,2,2′,3-tetrahydrospiro[furo[2,3-g][1,4]benzodioxine-8,3′-indole]-4′-carboxylate]	184 to 186 °C	> 50%	–
Cl.O=C1N(Cc2ccccn2)c2ccccc2C12COc1cc3c(cc12)OCCO3 (stereo not shown) [Example 4.42, 1′-(pyridin-2-ylmethyl)-2,3-dihydrospiro[furo[2,3-g][1,4]benzodioxine-8,3′-indol]-2′(1′H)-one hydrochloride]	206 to 208 °C	–	A (percent inhibition of less than 50% at 10 μM)
O=C1N(Cc2cccc(C(F)(F)F)n2)c2ccccc2C12COc1cc3c(cc12)OCCO3 (stereo not shown) [Example 5.9, 1′-{[6-(trifluoromethyl)pyridin-2-yl]methyl}-2,3-dihydrospiro[furo[2,3-g][1,4]benzodioxine-8,3′-indol]-2′(1′H)-one]	195 to 196 °C	> 50%	–
O=C1N(Cc2cccnc2C(F)(F)F)c2ccccc2C12COc1cc3c(cc12)OCCO3 (stereo not shown) [Example 5.10, 1′-{[2-(trifluoromethyl)pyridin-3-yl]methyl}-2,3-dihydrospiro[furo[2,3-g][1,4]benzodioxine-8,3′-indol]-2′(1′H)-one]	219 to 220 °C	< 50%	–
O=C1N(Cc2nccnc2C(F)(F)F)c2ccccc2C12COc1cc3c(cc12)OCCO3 (stereo not shown) [Example 5.11, 1′-{[3-(trifluoromethyl)pyrazin-2-yl]methyl}-2,3-dihydrospiro[furo[2,3-g][1,4]benzodioxine-8,3′-indol]-2′(1′H)-one]	230 to 232 °C	< 50%	–
O=C1N(Cc2cnccc2C(F)(F)F)c2ccccc2C12COc1cc3c(cc12)OCCO3 (stereo not shown) [Example 5.12, 1′-{[4-(trifluoromethyl)pyridin-3-yl]methyl}-2,3-dihydrospiro[furo[2,3-g][1,4]benzodioxine-8,3′-indol]-2′(1′H)-one]	131 to 132 °C	> 50%	–
COc1ncc(CN2C(=O)C3(COc4cc5c(cc43)OCCO5)c3ccccc32)cn1 (stereo not shown) [Example 5.14, 1′-[(2-methoxypyrimidin-5-yl)methyl]-2,3-dihydrospiro[furo[2,3-g][1,4]benzodioxine-8,3′-indol]-2′(1′H)-one]	248 to 249 °C	< 50%	–
CCCCCN1C(=O)[C@@]2(COc3cc4c(cc32)OCCO4)c2ccccc21 [Example 7.3, (S)-1-pentyl-2,3-dihydrospiro[furo[2,3-g][1,4]benzodioxine-8,3′-indol]-2′(1′H)-one]	111 to 113 °C	–	–

Further lines, with some results ahead:

melting point	inhibition at 10 µM (CYP3A4)	Structure (SMILES)	% Inhibition of CYP3A4 (CYP3A4; CYP3A4 isozyme, at 10 μM)
137 to 139 °C	< 50%	O=C1N(C[C@H]2COCCO2)c2ccccc2C12COc1cc3c(cc12)OCCCO3 (stereo partly drawn) [Example 8.13, 1′-[(2S)-1,4-dioxan-2-ylmethyl]-3,4-dihydro-2H-spiro[furo[2,3-h][1,5]benzodioxepine-9,3′-indol]-2′(1′H)-one]	–
83 to 86 °C	–	O=C1N(C[C@@H]2CCCN2)c2ccccc2C12COc1cc3c(cc12)CCO3 (stereo partly drawn) [Example 11.11, 1′-[(2S)-pyrrolidin-2-ylmethyl]-5,6-dihydrospiro[benzo[1,2-b:5,4-b′]difuran-3,3′-indol]-2′(1′H)-one]	–
107 to 115 °C	–	CC(C)NC(=O)N1CCC(CN2C(=O)C3(COc4cc5c(cc43)CCO5)c3ccccc32)C1 (stereo not shown) [Example 11.62, N-(1-methylethyl)-3-[(2′-oxo-5,6-dihydrospiro[benzo[1,2-b:5,4-b′]difuran-3,3′-indol]-1′(2′H)-yl)methyl]pyrrolidine-1-carboxamide]	–
193 to 196 °C	–	O=C(O)CN1C(=O)C2(COc3cc4c(cc32)OCCO4)c2ccccc21 (stereo not shown) [Example 11.76, (2′-oxo-2,3-dihydrospiro[furo[2,3-g][1,4]benzodioxine-8,3′-indol]-1′(2′H)-yl)acetic acid]	–
297 to 299 °C	< 50%	CN1C(=O)C2(COc3cc4c(cc32)OCCO4)c2c(C(=O)O)cccc21 (stereo not shown) [Example 11.77, 1′-methyl-2′-oxo-1′,2,2′,3-tetrahydrospiro[furo[2,3-g][1,4]benzodioxine-8,3′-indole]-4′-carboxylic acid]	–
87 to 89 °C	–	Cc1noc2cc3c(cc12)C1(CO3)C(=O)N(Cc2nc(C(=O)N(C)C)co2)c2ccccc21 (stereo not shown) [Example 13.9, N,N-dimethyl-2-[(3-methyl-2′-oxospiro[furo[3,2-f][1,2]benzisoxazole-5,3′-indol]-1′(2′H)-yl)methyl]-1,3-oxazole-4-carboxamide]	–
228 to 229 °C	> 50%	CN1C(=O)C2(COc3cc4c(cc32)OCCO4)c2c(-c3ccc4ccc(=O)oc4c3)cccc21 (stereo not shown) [Example 16.15, 1′-methyl-4′-(2-oxo-2H-chromen-7-yl)-2,3-dihydrospiro[furo[2,3-g][1,4]benzodioxine-8,3′-indol]-2′(1′H)-one]	–
256 to 258 °C	< 50%	CN1C(=O)C2(COc3cc4c(cc32)OCCO4)c2c1cccc2N1CCCC1=O (stereo not shown) [Example 16.16, 1′-methyl-4′-(2-oxopyrrolidin-1-yl)-2,3-dihydrospiro[furo[2,3-g][1,4]benzodioxine-8,3′-indol]-2′(1′H)-one]	–
246 to 249 °C	< 50%	CN1C(=O)C2(COc3cc4c(cc32)OCCO4)c2c(N3CCOCC3)cccc21 (stereo not shown) [Example 16.17, 1′-methyl-4′-morpholin-4-yl-2,3-dihydrospiro[furo[2,3-g][1,4]benzodioxine-8,3′-indol]-2′(1′H)-one]	–
212 to 214 °C	< 50%	CN1C(=O)C2(COc3cc4c(cc32)OCCO4)c2c1cccc2-n1ccccc1=O (stereo not shown) [Example 16.18, 1′-methyl-4′-(2-oxopyridin-1(2H)-yl)-2,3-dihydrospiro[furo[2,3-g][1,4]benzodioxine-8,3′-indol]-2′(1′H)-one]	–
252 to 254 °C	< 50%	CN1C(=O)C2(COc3cc4c(cc32)OCCO4)c2c(N)cccc21 (stereo not shown) [Example 16.19, 4′-amino-1′-methyl-2,3-dihydrospiro[furo[2,3-g][1,4]benzodioxine-8,3′-indol]-2′(1′H)-one]	–
234 to 236 °C	< 50%	CN1C(=O)C2(COc3cc4c(cc32)OCCO4)c2c(NC(=O)C3CCC3)cccc21 (stereo not shown) [Example 16.20, N-(1′-methyl-2′-oxo-1′,2,2′,3-tetrahydrospiro[furo[2,3-g][1,4]benzodioxine-8,3′-indol]-4′-yl)cyclobutanecarboxamide]	–
184 to 186 °C	< 50%	CN1C(=O)C2(COc3cc4c(cc32)OCCO4)c2c(NS(C)(=O)=O)cccc21 (stereo not shown) [Example 16.22, N-(1′-methyl-2′-oxo-1′,2,2′,3-tetrahydrospiro[furo[2,3-g][1,4]benzodioxine-8,3′-indol]-4′-yl)methanesulfonamide]	–
96 to 98 °C	< 50%	CN1C(=O)C2(COc3cc4c(cc32)OCCO4)c2c(NC(=O)C3CCCCC3)cccc21 (stereo not shown) [Example 16.23, N-(1′-methyl-2′-oxo-1′,2,2′,3-tetrahydrospiro[furo[2,3-g][1,4]benzodioxine-8,3′-indol]-4′-yl)cyclohexanecarboxamide]	–
196 to 198 °C	< 50%	CN1C(=O)C2(COc3cc4c(cc32)OCCO4)c2c(NC(=O)C3CCCC3)cccc21 (stereo not shown) [Example 16.24, N-(1′-methyl-2′-oxo-1′,2,2′,3-tetrahydrospiro[furo[2,3-g][1,4]benzodioxine-8,3′-indol]-4′-yl)cyclopentanecarboxamide]	–
182 to 184 °C	< 50%	CC(=O)Nc1cccc2c1C1(COc3cc4c(cc31)OCCO4)C(=O)N2C (stereo not shown) [Example 16.25, N-(1′-methyl-2′-oxo-1′,2,2′,3-tetrahydrospiro[furo[2,3-g][1,4]benzodioxine-8,3′-indol]-4′-yl)acetamide]	–
266 to 268 °C	< 50%	CN1C(=O)C2(COc3cc4c(cc32)OCCO4)c2c(NC(=O)C3CC3)cccc21 (stereo not shown) [Example 16.26, N-(1′-methyl-2′-oxo-1′,2,2′,3-tetrahydrospiro[furo[2,3-g][1,4]benzodioxine-8,3′-indol]-4′-yl)cyclopropanecarboxamide]	–
192 to 194 °C	> 50%	CN1C(=O)C2(COc3cc4c(cc32)OCCO4)c2c(NC(=O)c3ccccc3)cccc21 (stereo not shown) [Example 16.27, N-(1′-methyl-2′-oxo-1′,2,2′,3-tetrahydrospiro[furo[2,3-g][1,4]benzodioxine-8,3′-indol]-4′-yl)benzamide]	–
127 to 128 °C	–	CN1C(=O)C2(COc3cc4c(cc32)OCCO4)c2c(C(=O)NC3CC3)cccc21 (stereo not shown) [Example 16.40, N-cyclopropyl-1′-methyl-2′-oxo-1′,2,2′,3-tetrahydrospiro[furo[2,3-g][1,4]benzodioxine-8,3′-indole]-4′-carboxamide]	–
> 250 °C	–	CN1C(=O)C2(COc3cc4c(cc32)OCCO4)c2c(C(N)=O)cccc21 (stereo not shown) [Example 16.72, 1′-methyl-2′-oxo-1′,2,2′,3-tetrahydrospiro[furo[2,3-g][1,4]benzodioxine-8,3′-indole]-4′-carboxamide]	–
120 to 122 °C	–	CNC(=O)c1cccc2c1C1(COc3cc4c(cc31)OCCO4)C(=O)N2C (stereo not shown) [Example 16.76, N,1′-dimethyl-2′-oxo-1′,2,2′,3-tetrahydrospiro[furo[2,3-g][1,4]benzodioxine-8,3′-indole]-4′-carboxamide]	–
